Laboratory results as given in PMC7619385 (ACS infectious diseases, 2025).
Where two headings read alike, the source gives them in different places.

Legend:
[1] = biological target: T1, LmxCLK1 (Leishmania mexicana, UniProt E9AMP2); test: biochemical; format: binding
T1 sequence (E9AMP2 1-422): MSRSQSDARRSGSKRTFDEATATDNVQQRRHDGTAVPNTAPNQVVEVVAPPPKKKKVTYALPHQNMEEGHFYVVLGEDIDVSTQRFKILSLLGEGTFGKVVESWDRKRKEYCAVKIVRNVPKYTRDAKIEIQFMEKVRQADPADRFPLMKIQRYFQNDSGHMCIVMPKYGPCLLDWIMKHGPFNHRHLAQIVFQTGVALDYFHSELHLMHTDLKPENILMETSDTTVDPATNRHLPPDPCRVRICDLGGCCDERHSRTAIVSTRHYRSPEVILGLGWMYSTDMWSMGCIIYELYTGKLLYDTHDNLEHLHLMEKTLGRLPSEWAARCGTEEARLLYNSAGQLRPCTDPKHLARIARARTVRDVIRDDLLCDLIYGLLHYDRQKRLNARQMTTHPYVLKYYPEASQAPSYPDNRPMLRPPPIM

[2] = biological target: NLuc::LmxCLK1 (Leishmania mexicana, UniProt E9AMP2); test: cell-based; format: cell-based; conditions: for Target occupancy Run 1 / Target occupancy Run 2 / Target occupancy Average: 10 µM compound, tracer SV366, promastigotes; for Target occupancy Average: mean of two experiments
Procedure: All compounds were tested at a fixed concentration of 10 µM to enable direct comparison of their target occupancy in live cells.
Serially diluted probes (5 µL) were added to 85 µL of cells in culture media or 85 µL of purified protein. Final well volumes were adjusted to 100 µL with sterile Opti-MEM™ I Reduced Serum Medium (Thermo-Scientific) – for wells containing cells; or Kinase Buffer - for wells containing purified protein. For tracer displacement assays, samples were prepared as above, but final volume was brought to 100 µL by addition of vehicle or serially-diluted test compounds. Final DMSO concentration in these assays was 1%. […] Light emissions at 460+10 nm (BRET donor) and at 610+20 nm (BRET acceptor) were sequentially recorded (integration time = 0.5 s, gain = 3600) using a luminometer (BMG LABTECH Clariostar or Biotek Synergy HT). BRET values are reported in milli-BRET (mBRET) units (mBU), obtained by dividing the acceptor luminescence by the donor luminescence and multiplying the result by a factor of 1,000. BRET values were converted to blank-corrected probe occupancies (%) according to equation [1]: (1) Probeoccupancy(%)=X−Z/Y−Z×100 where X = mBRET value in the presence of the test compound and the probe, Y = mBRET value in the presence of probe only, and Z = mBRET value in the absence of probe and test compound. […]

[3] = DSF, 10 µM compound, 2 µM LmxCLK1, Run 1
[4] = DSF, 10 µM compound, 2 µM LmxCLK1, Run 2
[5] = DSF, 10 µM compound, 2 µM LmxCLK1, mean of two runs
[6] = DSF, 10 µM compound, 2 µM LmxCLK1, Run 1, read-out: ΔTm Run 1
[7] = DSF, 10 µM compound, 2 µM LmxCLK1, Run 2, read-out: ΔTm Run 2
[8] = DSF, 10 µM compound, 2 µM LmxCLK1, mean of two runs, read-out: ΔTm Average
[9] = read-out: Target occupancy Average
[10] = read-out: Target occupancy Run 1
[11] = read-out: Target occupancy Run 2

SMILES	ΔTm Run 1 [1, 3]	ΔTm Run 2 [1, 4]	ΔTm Average [1, 5]	Target occupancy Run 1 [2]	Target occupancy Run 2 [2]	Target occupancy Average [2]	ΔTm at 10 µM [1, 6]	ΔTm at 10 µM [1, 7]	ΔTm at 10 µM [1, 8]	receptor occupancy at 10 µM [2, 9]	receptor occupancy at 10 µM [2, 10]	receptor occupancy at 10 µM [2, 11]	ΔTm Average [1]	ΔTm Run 1 [1]	ΔTm Run 2 [1]
Cn1cc(C2=C(c3cn(C4CCN(Cc5ccccn5)CC4)c4ccccc34)C(=O)NC2=O)c2ccccc21 [Enzastaurin (LY317615)]	0.1 °C	-0.2 °C	0.0 °C	2.6%	-1.9%	0.3%									
C#Cc1cccc(Nc2ncnc3cc(OCCOC)c(OCCOC)cc23)c1.Cl [Erlotinib HCl (OSI-744)]	0.1 °C	0.1 °C	0.1 °C	-0.1%	-7.3%	-3.7%									
Cl.O=S(=O)(c1cccc2cnccc12)N1CCCNCC1 [Fasudil (HA-1077) HCl]	0.9 °C	0.6 °C	0.7 °C	6.9%	-10.2%	-1.7%									
O=C(Nc1nc2cccc(-c3ccc(CN4CCS(=O)(=O)CC4)cc3)n2n1)C1CC1 [Filgotinib (GLPG0634)]							0.2 °C	-0.4 °C	-0.1 °C	-15.3%	-9.1%	-21.6%			
CN1CC[C@H](c2c(O)cc(O)c3c(=O)cc(-c4ccccc4Cl)oc23)[C@H](O)C1.Cl [Flavopiridol HCl]	0.1 °C	-0.1 °C	0.0 °C	1.6%	-3.3%	-0.8%									
COc1cc(Nc2ncc(F)c(Nc3ccc4c(n3)N(COP(=O)(O)O)C(=O)C(C)(C)O4)n2)cc(OC)c1OC [Fostamatinib (R788)]	0.2 °C	0.2 °C	0.2 °C	0.9%	-17.9%	-8.5%									
CC(C)NC[C@@H](C(=O)N1CCN(c2ncnc3c2[C@H](C)C[C@H]3O)CC1)c1ccc(Cl)cc1 [GDC-0068]							0.4 °C	0 °C	0.2 °C	0.3%	6%	-5.5%			
CN(C)CCCn1cc(C2=C(c3c[nH]c4ccccc34)C(=O)NC2=O)c2ccccc21 [GF109203X]				-5.7%	-5.0%	-5.4%							0.2 °C	0.3 °C	0.1 °C
CCNc1nc(Nc2cc(F)c(C(=O)N3CCOCC3)cc2OC)ncc1C(F)(F)F [GNE-7915]							-0.1 °C	-0.5 °C	-0.3 °C	-3.7%	-10.5%	3.1%			
CNc1nc(Nc2cnn([C@H]3CCN(C4COC4)C[C@@H]3F)c2Cl)ncc1C(F)(F)F [GNE-9605]				3.1%	-5.2%	-1.1%							-0.4	-0.2	-0.5
NC(=O)c1cccc(-c2cc(Nc3ccc(OC(F)(F)F)cc3)ncn2)c1 [GNF-2]				-8.5%	-14.2%	-11.3%							-0.2	-0.2	-0.3
O=C(NCCO)c1cccc(-c2cc(Nc3ccc(OC(F)(F)F)cc3)ncn2)c1 [GNF-5]				-7.9%	-2.3%	-5.1%							-0.3	-0.2	-0.3
O=C(O)c1ccc(-c2c[nH]c3ncc(-c4ccccc4)cc23)cc1C1CCCC1 [GSK650394]							-0.4 °C	-0.3 °C	-0.3 °C	-8.8%	-24.3%	6.7%			
O=C1NC(=O)/C(=C/c2ccc3nccc(-c4ccncc4)c3c2)S1 [GSK1059615]							0.3 °C	-0.2 °C	0 °C	-2.8%	-4.2%	-1.5%			
Cc1c(Cn2c(C)nc3c(C(=O)O)cc(N4CCOCC4)cc32)cccc1C(F)(F)F [GSK2636771]							0.2 °C	0.1 °C	0.1 °C	-2.2%	2.9%	-7.3%			
O=C1Nc2ccc(I)cc2/C1=C/c1cc(Br)c(O)c(Br)c1 [GW5074]	0.0 °C	-0.4 °C	-0.2 °C	-7.5%	-6.2%	-6.8%									
COc1ccc2c(c1)c(C1=C(c3c[nH]c4ccccc34)C(=O)NC1=O)cn2CCCN(C)C [Go 6983]	0.6 °C	0.0 °C	0.3 °C	-11.0%	-14.1%	-12.6%									
O=C(c1ccc(Nc2nccc(-c3cc4ccccc4s3)n2)cc1)N1CCC(N2CCCC2)CC1 [IKK-16 (IKK Inhibitor VII)]	1.9 °C	1.6 °C	1.8 °C	10.2%	-10.2%	0.0%									
Cc1[nH]c2ccccc2c1C1=C(NCCc2ccc(F)cc2)C(=O)N(C)C1=O [IM-12]				-0.3%	-14.5%	-7.4%							-0.2	-0.2	-0.3
CC(C)n1nc(-c2ccc3oc(N)nc3c2)c2c(N)ncnc21 [INK 128 (MLN0128)]	0.6 °C	0.5 °C	0.5 °C	-0.8%	0.1%	-0.3%									
C=CS(=O)(=O)NC1CCN(C(=O)CNc2cc(I)c(Cl)cc2OC)CC1 [K-Ras(G12C) inhibitor 9]	0.3 °C	-0.6 °C	-0.1 °C	-21.1%	-10.0%	-15.5%									
